In ChEMBL document CHEMBL1201861, “Genomics of Drug Sensitity in Cancer screening data, Wellcome Trust Sanger Institute”:

What was measured:
Experiment in all cases: cells
T-24 = type: functional, cell-based, Homo sapiens; details: Homo sapiens, T-24;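 also: growth inhibition of T-24 cells, read out with a cell viability assay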
Description: SANGER: Inhibition of human T-24 cell growth in a cell viability assay.

KYSE-410 = type: functional, cell-based, Homo sapiens; details: Homo sapiens, KYSE-410;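 also: growth inhibition of KYSE-410 cells, measured through a cell viability readout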
Description: SANGER: Inhibition of human KYSE-410 cell growth in a cell viability assay.

T98G = type: functional, cell-based, Homo sapiens; details: Homo sapiens, T98G;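 also: growth inhibition of T98G cells, read out by a cell viability assay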
Description: SANGER: Inhibition of human T98G cell growth in a cell viability assay.

HSC-3 = type: functional, cell-based, Homo sapiens; details: Homo sapiens, HSC-3
Description: SANGER: Inhibition of human HSC-3 cell growth in a cell viability assay.

YH-13 = type: functional, cell-based, Homo sapiens; details: Homo sapiens, YH-13;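 also: cell viability readout of growth suppression in the human YH-13 cell line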
Description: SANGER: Inhibition of human YH-13 cell growth in a cell viability assay.

MDA-MB-157 = type: functional, cell-based, Homo sapiens; details: Homo sapiens, MDA-MB-157
Description: SANGER: Inhibition of human MDA-MB-157 cell growth in a cell viability assay.

U2OS = type: functional, cell-based, Homo sapiens, U-2-OS; details: Homo sapiens, U2OS;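 also: growth inhibition of human U-2-OS cells, determined with a cell viability assay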
Description: SANGER: Inhibition of human U-2-OS cell growth in a cell viability assay.

SW1990 = type: functional, cell-based, Homo sapiens; details: Homo sapiens, SW1990;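 also: cell growth inhibition determined with a viability assay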
Description: SANGER: Inhibition of human SW1990 cell growth in a cell viability assay.

NCI-H2170 = type: functional, cell-based, Homo sapiens; details: Homo sapiens, NCI-H2170;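 also: cell viability assay measuring growth inhibition of human NCI-H2170 cancer cells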
Description: SANGER: Inhibition of human NCI-H2170 cell growth in a cell viability assay.

CAL-120 = type: functional, cell-based, Homo sapiens; details: Homo sapiens, CAL-120;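 also: cell growth inhibition, read out as cell viability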
Description: SANGER: Inhibition of human CAL-120 cell growth in a cell viability assay.

NCI-H1437 = type: functional, cell-based, Homo sapiens; details: Homo sapiens, NCI-H1437;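 also: growth inhibition of human NCI-H1437 cells, read out by a cell viability assay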
Description: SANGER: Inhibition of human NCI-H1437 cell growth in a cell viability assay.

U-251 = type: functional, cell-based, Homo sapiens; details: Homo sapiens, U-251;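 also: growth inhibition of human U-251 cells, read out through a cell viability assay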
Description: SANGER: Inhibition of human U251 cell growth in a cell viability assay.

MDA-MB-453 = type: functional, cell-based, Homo sapiens; details: Homo sapiens, MDA-MB-453
Description: SANGER: Inhibition of human MDA-MB-453 cell growth in a cell viability assay.

NY = type: functional, cell-based, Homo sapiens; details: Homo sapiens, NY
Description: SANGER: Inhibition of human NY cell growth in a cell viability assay.

MDA-MB-361 = type: functional, cell-based, Homo sapiens; details: Homo sapiens, MDA-MB-361
MDA-MB-175-VII = type: functional, cell-based, Homo sapiens; details: Homo sapiens, MDA-MB-175-VII
M14 = type: functional, cell-based, Homo sapiens; details: Homo sapiens, M14;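 also: growth inhibition of M14 cells, read out with a cell viability assay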
Description: SANGER: Inhibition of human M14 cell growth in a cell viability assay.

CP50-MEL-B = type: functional, cell-based, Homo sapiens; details: Homo sapiens, CP50-MEL-B;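 also: growth inhibition of the human cell line, measured with a cell viability read-out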
Description: SANGER: Inhibition of human CP50-MEL-B cell growth in a cell viability assay.

KYSE-150 cell line = type: functional, cell-based, Homo sapiens; details: Homo sapiens, KYSE-150;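 also: growth inhibition of human KYSE-150 cells, read out with a cell viability assay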
Description: SANGER: Inhibition of human KYSE-150 cell growth in a cell viability assay.

SW 1116 = type: functional, cell-based, Homo sapiens; details: Homo sapiens, SW 1116;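 also: growth inhibition of SW1116 cells, read out with a cell viability assay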
Description: SANGER: Inhibition of human SW1116 cell growth in a cell viability assay.

HCC70 = type: functional, cell-based, Homo sapiens; details: Homo sapiens, HCC70;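 also: cell viability assay measuring how strongly the compound suppresses proliferation of HCC70 cells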
Description: SANGER: Inhibition of human HCC70 cell growth in a cell viability assay.

AU565 = type: functional, cell-based, Homo sapiens; details: Homo sapiens, AU565;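 also: cell viability assay measuring growth inhibition of human AU565 cells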
Description: SANGER: Inhibition of human AU565 cell growth in a cell viability assay.

MEL-JUSO = type: functional, cell-based, Homo sapiens; details: Homo sapiens, MEL-JUSO;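 also: growth inhibition of human MEL-JUSO cells, read out with a cell viability assay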
Description: SANGER: Inhibition of human MEL-JUSO cell growth in a cell viability assay.

UMC-11 = type: functional, cell-based, Homo sapiens; details: Homo sapiens, UMC-11;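 also: growth inhibition of UMC-11 cells, read out with a cell viability assay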
Description: SANGER: Inhibition of human UMC-11 cell growth in a cell viability assay.

SCC-25 = type: functional, cell-based, Homo sapiens; details: Homo sapiens, SCC-25;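 also: growth inhibition of SCC-25 cells, measured with a cell viability assay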
Description: SANGER: Inhibition of human SCC-25 cell growth in a cell viability assay.

PA-1 = type: functional, cell-based, Homo sapiens; details: Homo sapiens, PA-1;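 also: IC50 for suppression of PA-1 cell proliferation, determined with a cell viability read-out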
Description: SANGER: Inhibition of human PA-1 cell growth in a cell viability assay.

COLO-678 = type: functional, cell-based, Homo sapiens; details: Homo sapiens, COLO-678
Description: SANGER: Inhibition of human COLO-678 cell growth in a cell viability assay.

H-EMC-SS = type: functional, cell-based, Homo sapiens; details: Homo sapiens, H-EMC-SS
Description: SANGER: Inhibition of human H-EMC-SS cell growth in a cell viability assay.

D-423MG = type: functional, cell-based, Homo sapiens; details: Homo sapiens, D-423MG
Description: SANGER: Inhibition of human D-423MG cell growth in a cell viability assay.

HSC-4 = type: functional, cell-based, Homo sapiens; details: Homo sapiens, HSC-4;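 also: growth inhibition of human HSC-4 cells, read out with a cell viability assay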
Description: SANGER: Inhibition of human HSC-4 cell growth in a cell viability assay.

5637 = type: functional, cell-based, Homo sapiens; details: Homo sapiens
Description: SANGER: Inhibition of human 5637 cell growth in a cell viability assay.

HCC1395 = type: functional, cell-based, Homo sapiens; details: Homo sapiens, HCC1395;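 also: growth inhibition of HCC1395 cells, read out by a cell viability assay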
Description: SANGER: Inhibition of human HCC1395 cell growth in a cell viability assay.

EW-22 = type: functional, cell-based, Homo sapiens; details: Homo sapiens, EW-22;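 also: growth inhibition of the EW-22 cell line, measured with a cell viability readout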
Description: SANGER: Inhibition of human EW-22 cell growth in a cell viability assay.

SKG-IIIa = type: functional, cell-based, Homo sapiens; details: Homo sapiens, SKG-IIIa;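 also: cell growth inhibition, read out with a cell viability assay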
Description: SANGER: Inhibition of human SKG-IIIa cell growth in a cell viability assay.

ZR-75-30 = type: functional, cell-based, Homo sapiens; details: Homo sapiens, ZR-75-30;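 also: growth inhibition of ZR-75-30 cells, measured with a cell viability readout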
Description: SANGER: Inhibition of human ZR-75-30 cell growth in a cell viability assay.

NCI-H727 = type: functional, cell-based, Homo sapiens; details: Homo sapiens, NCI-H727;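 also: growth inhibition of human NCI-H727 cells, read out with a cell viability assay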
Description: SANGER: Inhibition of human NCI-H727 cell growth in a cell viability assay.

NCI-H1703 = type: functional, cell-based, Homo sapiens; details: Homo sapiens, NCI-H1703;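 also: growth inhibition of NCI-H1703 cells, read out via a cell viability assay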
Description: SANGER: Inhibition of human NCI-H1703 cell growth in a cell viability assay.

SMILES | IC50 (T-24) [µM] | IC50 (KYSE-410) [µM] | IC50 (T98G) [µM] | IC50 (HSC-3) [µM] | IC50 (YH-13) [µM] | IC50 (MDA-MB-157) [µM] | IC50 (U2OS) [µM] | IC50 (SW1990) [µM] | IC50 (NCI-H2170) [µM] | IC50 (CAL-120) [µM] | IC50 (NCI-H1437) [µM] | IC50 (U-251) [µM] | IC50 (MDA-MB-453) [µM] | IC50 (NY) [µM] | IC50 (MDA-MB-361) [µM] | IC50 (MDA-MB-175-VII) [µM] | IC50 (M14) [µM] | IC50 (CP50-MEL-B) [µM] | IC50 (KYSE-150 cell line) [µM] | IC50 (SW 1116) [µM] | other results
CO[C@H]1C[C@@H]2CC[C@@H](C)[C@@](O)(O2)C(=O)C(=O)N2CCCC[C@H]2C(=O)O[C@H]([C@H](C)C[C@@H]2CC[C@@H](OC(=O)C(C)(CO)CO)[C@H](OC)C2)CC(=O)[C@H](C)/C=C(\C)[C@@H](O)[C@@H](OC)C(=O)[C@H](C)C[C@H](C)/C=C/C=C/C=C/1C [TEMSIROLIMUS] | 0.0139 | 0.18 | 0.0262 | 0.0387 | 0.0411 | > 0.2 | 0.0702 | > 0.2 | > 0.2 | > 0.2 | 0.103 | > 0.2 | > 0.2 | > 0.2 | > 0.2 | > 0.2 | > 0.2 | > 0.2 | > 0.2 | > 0.2 | IC50 (HCC70): 0.158 µM; IC50 (AU565): > 0.2 µM; IC50 (MEL-JUSO): 0.0666 µM; IC50 (UMC-11): 0.0894 µM; IC50 (SCC-25): > 0.2 µM; IC50 (PA-1): 0.00147 µM; IC50 (COLO-678): > 0.2 µM; IC50 (H-EMC-SS): > 0.2 µM; IC50 (D-423MG): > 0.2 µM; IC50 (HSC-4): < 0.000781 µM; IC50 5637: > 0.2 µM; IC50 (HCC1395): > 0.2 µM; IC50 (EW-22): > 0.2 µM; IC50 (SKG-IIIa): > 0.2 µM; IC50 (ZR-75-30): > 0.2 µM; IC50 (NCI-H727): > 0.2 µM; IC50 (NCI-H1703): 0.0232 µM
CC(C)CCN1c2nc(Nc3cc(F)c(O)c(F)c3)ncc2N(C)C(=O)C1C (stereo unspecified) | > 5 | > 5 | 3.28 | 0.818 | > 5 | 4.31 | > 5 | > 5 | > 5 | > 5 | 4.93 | 2.73 | > 5 | > 5 | > 5 | > 5 | > 5 | > 5 | 2.15 | > 5 | IC50 (HCC70): > 5 µM; IC50 (AU565): > 5 µM; IC50 (MEL-JUSO): > 5 µM; IC50 (UMC-11): > 5 µM; IC50 (SCC-25): > 5 µM; IC50 (PA-1): > 5 µM; IC50 (COLO-678): > 5 µM; IC50 (H-EMC-SS): > 5 µM; IC50 (D-423MG): 4.81 µM; IC50 5637: 4.61 µM; IC50 (HCC1395): > 5 µM; IC50 (EW-22): > 5 µM; IC50 (SKG-IIIa): > 5 µM; IC50 (ZR-75-30): > 5 µM; IC50 (NCI-H727): > 5 µM; IC50 (NCI-H1703): > 5 µM
CCN(CC)CCCCNc1ncc2cc(-c3cc(OC)cc(OC)c3)c(NC(=O)NC(C)(C)C)nc2n1 [PD-173074] | > 2 | > 2 | > 2 | > 2 | > 2 | > 2 | > 2 | > 2 | > 2 | > 2 | > 2 | > 2 | > 2 | > 2 | > 2 | > 2 | > 2 | > 2 | > 2 | > 2 | IC50 (HCC70): > 2 µM; IC50 (AU565): > 2 µM; IC50 (UMC-11): > 2 µM; IC50 (SCC-25): > 2 µM; IC50 (PA-1): > 2 µM; IC50 (COLO-678): > 2 µM; IC50 (H-EMC-SS): 0.347 µM; IC50 (D-423MG): > 2 µM; IC50 5637: > 2 µM; IC50 (HCC1395): > 2 µM; IC50 (EW-22): > 2 µM; IC50 (SKG-IIIa): > 2 µM; IC50 (ZR-75-30): > 2 µM; IC50 (NCI-H727): > 2 µM
COc1cc2c(Nc3ccc(NC(=O)c4ccccc4)cc3)ncnc2cc1OCCCN1CCOCC1 | > 4 | > 4 | 3.95 | 3.37 | > 4 | > 4 | > 4 | > 4 | > 4 | > 4 | > 4 | > 4 | > 4 | > 4 | > 4 | > 4 | > 4 | > 4 | > 4 | > 4 | IC50 (HCC70): > 4 µM; IC50 (AU565): > 4 µM; IC50 (UMC-11): 2.37 µM; IC50 (SCC-25): > 4 µM; IC50 (PA-1): 2.87 µM; IC50 (COLO-678): > 4 µM; IC50 (H-EMC-SS): > 4 µM; IC50 (D-423MG): > 4 µM; IC50 5637: > 4 µM; IC50 (HCC1395): > 4 µM; IC50 (EW-22): 3.18 µM; IC50 (SKG-IIIa): > 4 µM; IC50 (ZR-75-30): > 4 µM; IC50 (NCI-H727): > 4 µM
